Assay results: patent US20030166932A1 (priority 2002, published 2003)

How the values were obtained:
[1] = target: T1, RXRβ (UniProt P28704); experiment: holoreceptor transactivation assay; format: cell-based; settings: for EC50: NA = Not Active, read-out: RXR Trans. EC50 (nM) β; for % efficacy, RXR Trans. β: relative to 10^−6 M AGN 194204
T1 sequence (P28704 1-520): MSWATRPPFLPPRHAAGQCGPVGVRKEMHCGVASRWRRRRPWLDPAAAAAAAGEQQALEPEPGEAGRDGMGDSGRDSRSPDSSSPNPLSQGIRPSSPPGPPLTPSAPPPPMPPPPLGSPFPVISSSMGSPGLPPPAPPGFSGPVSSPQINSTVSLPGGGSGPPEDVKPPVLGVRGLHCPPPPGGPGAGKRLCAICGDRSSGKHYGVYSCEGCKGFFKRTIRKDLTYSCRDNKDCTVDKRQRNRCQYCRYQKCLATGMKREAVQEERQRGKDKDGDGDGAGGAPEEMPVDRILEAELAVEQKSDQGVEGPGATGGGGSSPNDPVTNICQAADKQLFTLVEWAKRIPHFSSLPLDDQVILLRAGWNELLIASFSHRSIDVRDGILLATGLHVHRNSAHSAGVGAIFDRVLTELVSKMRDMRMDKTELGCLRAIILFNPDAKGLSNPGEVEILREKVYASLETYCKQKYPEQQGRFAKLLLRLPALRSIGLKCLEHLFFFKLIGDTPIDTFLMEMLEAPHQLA
Description: (§1) The results obtained in this assay are expressed in EC50 numbers, as they are also in the chimeric receptor transactivation assay. The results of ligand binding assay are expressed in Kd numbers.
(§2) Particularly, the transactivation data pertaining to RAR receptors were obtained in the chimeric assay, and the data pertaining to transactivation of RXR receptors were obtained in the holoreceptor transactivation assay.

[2] = target: T2, RXRγ (UniProt P28705); experiment: holoreceptor transactivation assay; format: cell-based; settings: for EC50: NA = Not Active, read-out: RXR Trans. EC50 (nM) Y; for % efficacy, RXR Trans. Y: relative to 10^−6 M AGN 194204
T2 sequence (P28705 1-463): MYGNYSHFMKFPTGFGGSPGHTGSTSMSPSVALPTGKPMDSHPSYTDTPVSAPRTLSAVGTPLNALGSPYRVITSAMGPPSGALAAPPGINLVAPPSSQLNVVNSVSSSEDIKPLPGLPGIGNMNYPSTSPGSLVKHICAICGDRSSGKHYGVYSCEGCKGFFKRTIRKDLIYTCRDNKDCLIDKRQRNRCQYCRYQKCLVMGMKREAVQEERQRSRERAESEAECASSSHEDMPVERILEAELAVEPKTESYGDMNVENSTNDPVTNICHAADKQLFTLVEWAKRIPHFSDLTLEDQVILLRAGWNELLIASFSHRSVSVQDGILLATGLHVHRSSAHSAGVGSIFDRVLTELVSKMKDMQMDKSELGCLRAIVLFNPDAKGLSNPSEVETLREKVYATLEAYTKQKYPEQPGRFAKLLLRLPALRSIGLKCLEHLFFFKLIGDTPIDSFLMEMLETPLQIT
Description: as §1, §2

[3] = target: T3, RARβ (Homo sapiens, UniProt P10826); experiment: ligand binding assay; settings: read-out: RAR Bind. Ki (nM) β
T3 sequence (P10826 1-455): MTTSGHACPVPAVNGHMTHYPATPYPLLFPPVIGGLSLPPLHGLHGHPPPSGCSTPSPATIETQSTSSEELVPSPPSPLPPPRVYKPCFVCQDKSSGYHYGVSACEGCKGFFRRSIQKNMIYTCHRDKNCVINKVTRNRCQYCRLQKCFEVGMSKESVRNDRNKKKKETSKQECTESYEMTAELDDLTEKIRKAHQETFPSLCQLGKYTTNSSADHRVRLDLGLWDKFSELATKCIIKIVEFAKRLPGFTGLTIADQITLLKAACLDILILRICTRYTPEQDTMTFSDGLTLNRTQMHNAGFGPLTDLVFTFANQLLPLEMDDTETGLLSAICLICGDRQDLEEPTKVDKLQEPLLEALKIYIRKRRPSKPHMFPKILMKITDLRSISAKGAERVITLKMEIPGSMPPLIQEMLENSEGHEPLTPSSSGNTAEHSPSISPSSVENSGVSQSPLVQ
Description: as §1, §2

[4] = target: T1, RXRβ; experiment: ligand binding assay; settings: read-out: RXR Bind Ki (nM) β
Description: as §1, §2

[5] = target: T4, RXRα (Homo sapiens, UniProt P19793); experiment: ligand binding assay
T4 sequence (P19793 1-462): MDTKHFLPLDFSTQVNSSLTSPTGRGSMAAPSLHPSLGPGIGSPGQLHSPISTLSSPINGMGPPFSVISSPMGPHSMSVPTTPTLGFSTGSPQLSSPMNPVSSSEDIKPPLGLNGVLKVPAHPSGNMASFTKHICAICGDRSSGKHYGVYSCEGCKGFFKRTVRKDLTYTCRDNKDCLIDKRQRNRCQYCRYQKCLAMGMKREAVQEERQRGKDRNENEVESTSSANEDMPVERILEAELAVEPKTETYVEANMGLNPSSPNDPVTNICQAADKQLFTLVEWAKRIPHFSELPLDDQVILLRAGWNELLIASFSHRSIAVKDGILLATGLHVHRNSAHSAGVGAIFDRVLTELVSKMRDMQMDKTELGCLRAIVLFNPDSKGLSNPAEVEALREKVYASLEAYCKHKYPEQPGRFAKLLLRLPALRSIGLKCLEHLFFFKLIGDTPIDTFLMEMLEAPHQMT
Description: as §1, §2

[6] = target: T4, RXRα; experiment: holoreceptor transactivation assay; settings: for Emax: read-out: % efficacy, RXR Trans. α
Description: as §1, §2

[7] = target: T5, RARγ (Homo sapiens, UniProt P13631); experiment: ligand binding assay; settings: read-out: RAR Bind. Ki (nM) Y
T5 sequence (P13631 1-454): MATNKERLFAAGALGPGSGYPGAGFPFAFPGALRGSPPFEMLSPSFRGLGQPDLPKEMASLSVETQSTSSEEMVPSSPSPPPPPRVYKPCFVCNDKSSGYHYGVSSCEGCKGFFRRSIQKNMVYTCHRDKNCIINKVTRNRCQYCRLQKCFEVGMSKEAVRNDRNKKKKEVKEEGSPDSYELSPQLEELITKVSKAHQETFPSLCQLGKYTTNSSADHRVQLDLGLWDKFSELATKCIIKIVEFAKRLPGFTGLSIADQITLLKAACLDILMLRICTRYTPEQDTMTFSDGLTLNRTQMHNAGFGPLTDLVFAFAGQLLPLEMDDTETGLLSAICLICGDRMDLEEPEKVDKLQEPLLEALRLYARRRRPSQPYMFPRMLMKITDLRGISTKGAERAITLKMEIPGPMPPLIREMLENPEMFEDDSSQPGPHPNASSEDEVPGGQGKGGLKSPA
Description: as §1, §2

Compound | EC50 [1] | % efficacy, RXR Trans. β [1] | EC50 [2] | % efficacy, RXR Trans. Y [2] | Ki [3] | Ki [4] | Ki [5] | EC50 [6] | Emax [6] | Ki [7]
CCN(c1ccc(C(=O)O)cc1)c1cc2c(cc1C)C(C)(C)CC=C2C [Compound 23, 4-[Ethyl(3,5,5,8-tetramethyl-5,6-dihydronaphthalen-2-yl)amino]benzoic acid] | 149 nM | (101) % | 41 nM | (119) % | 16000 nM | 309 nM | 8 nM | 21 nM | 101% | 
CCC1=CCC(C)(C)c2cc(C)c(N(CC)c3ccc(C(=O)O)cc3)cc21 [Compound 24, 4-[Ethyl(8-ethyl-3,5,5-trimethyl-5,6-dihydronaphthalen-2-yl)amino]benzoic acid] | 10 nM | (96) % | 2 nM | (102) % | 9100 nM | 66 nM | 29 nM | 1 nM | 100% | 13000 nM
CCN(c1ccc(C(=O)O)cc1)c1cc2c(cc1C)C(C)(C)CC=C2C(C)C [Compound 25, 4-[Ethyl(8-isopropyl-3,5,5-trimethyl-5,6-dihydronaphthalen-2-yl)amino]benzoic acid] | 0.9 nM | (96) % | 0.2 nM | (105) % | 6400 nM | 20 nM | 2 nM | < 0.1 nM | 97% | 4400 nM
CC1=CCC(C)(C)c2cc(N(CC3CC3)c3ccc(C(=O)O)cc3)c(C)cc21 [Compound 47, 4-[Cyclopropylmethyl(3,5,8,8-tetramethyl-7,8-dihydronaphthalen-2-yl)amino]benzoic acid] |  |  |  | (70) % | > 10000 nM | > 1000 nM | 2500 nM |  | 65% | > 10000 nM
Cc1cc2c(cc1N(C)c1ccc(C(=O)O)cc1)C(C)(C)CC=C2C(C)C [Compound 52, 4-[Methyl-(5-isopropyl-3,8,8-trimethyl-7,8-dihydronaphthalen-2-yl)amino]benzoic acid] | > 1000 nM | (25) % |  | (855) % | > 10000 nM | 2700 nM | 1700 nM |  | 75% | > 10000 nM
CCN(c1ccc(C(=O)O)cc1)c1cc2c(cc1C)C(C(C)C)=CCC2(C)C [Compound 53, 4-[Ethyl-(5-isopropyl-3,8,8-trimethyl-7,8-dihydronaphthalen-2-yl)amino]benzoic acid] | > 1000 nM | (20) % |  | (75) % | > 10000 nM | > 1000 nM | 1200 nM |  | 65% | > 10000 nM
CCC1=CCC(C)(C)c2cc(N(CC)c3ccc(C(=O)O)cc3)c(C)cc21 [Compound 59, 4-[Ethyl(5-ethyl-3,8,8-trimethyl-7,8-dihydronaphthalen-2-yl)amino]benzoic acid] |  | (100) % |  | (100) % | > 10000 nM |  | 282 nM |  | 100% | > 10000 nM
CCCCCCOc1cc2c(cc1N(CC)c1ccc(C(=O)O)cc1)C(C)=CCC2(C)C [Compound 142, 4-[Ethyl-(3-n-hexyloxy-5,5,8-trimethyl-5,6-dihydronaphthalen-2-yl)amino]benzoic Acid] |  |  |  |  | 1000 nM | 111 nM | 190 nM |  |  | > 1000 nM
CCCCCCCOc1cc2c(cc1N(CC)c1ccc(C(=O)O)cc1)C(C)=CCC2(C)C [Compound 143, 4[Ethyl-(3-n-heptyloxy-5,5,8-trimethyl-5,6-dihydronaphthalen-2-yl)amino]benzoic acid] |  |  |  |  | 1700 nM | 449 nM | 175 nM |  |  | 8400 nM
CCN(c1ccc(C(=O)O)cc1)c1cc2c(cc1OCc1ccccc1)C(C)(C)CC=C2C [Compound 144, 4-[(3-Benzyloxy-5,5,8-trimethyl-5,6-dihydronaphthalen-2-yl)ethylamino]benzoic acid] |  |  |  |  | 2700 nM | 224 nM | 77 nM |  |  | 8100 nM
CCCCCCOc1cc2c(cc1N(CCC)c1ccc(C(=O)O)cc1)C(C)=CCC2(C)C [Compound 145, 4-[(3-n-Hexyloxy-5,5,8-trimethyl-5,6-dihydronaphthalen-2-yl)-n-propylamino]benzoic acid] |  |  | > 1000 nM | (10) % | 771 nM | 475 nM | 229 nM |  |  | 6000 nM
CCCCCCCOc1cc2c(cc1N(CCC)c1ccc(C(=O)O)cc1)C(C)=CCC2(C)C [Compound 146, 4-[(3-n-Heptyloxy-5 5,8-trimethyl-5,6-dihydronaphthalen-2-yl)-n-propylamino]benzoic acid] |  |  |  |  | 576 nM | 429 nM | 206 nM |  |  | 2800 nM
CCCN(c1ccc(C(=O)O)cc1)c1cc2c(cc1OCc1ccccc1)C(C)(C)CC=C2C [Compound 147, 4-[(3-Benzyloxy-5 5,8-trimethyl-5,6-dihydronaphthalen-2-yl)-n-propylamino]benzoic acid] |  |  | 280 nM | (13) % | 4800 nM | 501 nM | 241 nM |  |  | 15000 nM
CCCCCCOc1cc2c(cc1N(CC)c1ccc(C(=O)O)cc1)C(C(C)C)=CCC2(C)C [Compound 153, 4-[Ethyl-(3-n-hexyloxy-8-isopropyl-5,5-dimethyl-5,6-dihydronaphthalen-2-yl)amino]benzoic acid] |  |  |  |  | 4800 nM | 106 nM | 22 nM |  |  | 8900 nM
CCN(c1ccc2c(c1)C(C(C)(C)C)=CCC2(C)C)c1ccc(C(=O)O)cn1 [Compound 173, 6-[(8-t-Butyl-5,5-dimethyl-5,6-dihydro-naphthalen-2-yl)-ethyl-amino]-nicotinic acid] | 9 nM | (132) % | 2 nM | (125) % |  |  |  | 1 nM | 120% | 
